PMC9586938, “Picomolar fluorescent probes for compound affinity determination to carbonic anhydrase IX expressed in live cancer cells” (Scientific Reports, 2022)
“And” between values parts separate entries of the source, which are not always exact repeats. Equal values may be shown once. Read-outs that look alike come from different tables or passages of the source.

Key:
CAVB = target: T1, CAVB (Homo sapiens, UniProt Q9Y2D0); assay: Thermal shift assay (TSA), recombinant CAVB; type: binding; settings: 37 °C, pH 7.0, observed (not intrinsic)
T1 construct: made in house; host or cells: E. coli

CAVII = target: T2, CAVII (Homo sapiens, UniProt P43166); assay: Thermal shift assay (TSA), recombinant CAVII; type: binding; settings: 37 °C, pH 7.0, observed (not intrinsic)
T2 construct: made in house; host or cells: E. coli

CAIII = target: T3, CAIII (Homo sapiens, UniProt P07451); assay: Thermal shift assay (TSA), recombinant CAIII; type: binding; settings: 37 °C, pH 7.0, observed (not intrinsic)
T3 construct: made in house; host or cells: E. coli
Experimental: (§1) The binding affinities of all fluorescein-containing compounds were determined for all 12 catalytically active CA isozymes by the thermal shift assay (TSA). […] However, the SFA technique cannot determine the affinities lower than the enzyme concentration used in the assay. […] In addition, we used isothermal titration calorimetry (ITC), the standard assay to determine affinity and enthalpy of protein–ligand binding. […] Therefore, ITC was used only to determine the enthalpy of interaction and confirm the ordering of compound affinities.
(§2) All twelve catalytically active human CA isozymes were prepared recombinantly as previously described. Isozymes CAIX, CAXII, and CAXIV were the catalytic domains of the proteins[14],[38]. All isozymes were expressed in E. coli except CAIX that has been prepared in mammalian cells. The proteins were chromatographically purified on ion-exchange or benzene sulfonamide containing affinity columns. Protein MW was confirmed by mass spectrometry with 1 Da precision as predicted from gene sequence.
(§3) Compound affinities for the twelve catalytically active CA isozymes were determined by the thermal shift assay as previously described[30],[39]. Protein solutions containing 1,8-anilinonaphthalenesulfonate fluorescent probe were heated from 25 to 100 °C at a rate of one degree per minute while following the fluorescence of the probe. The temperature scanning curves provided the melting temperature Tm of the protein. The Tm has a distinct dependence on the concentration of a compound. Stronger binders shift the Tm to a greater extent than the weak binders. The Tm dependencies on compound concentration were fit to obtain the affinity Kd[40].

CAI = target: T4, CAI (Homo sapiens, UniProt P00915); assay: Thermal shift assay (TSA), recombinant CAI; type: binding; settings: 37 °C, pH 7.0, observed (not intrinsic)
T4 construct: made in house; host or cells: E. coli

CAVA = target: T5, CAVA (Homo sapiens, UniProt P35218); assay: Thermal shift assay (TSA), recombinant CAVA; type: binding; settings: 37 °C, pH 7.0, observed (not intrinsic)
T5 construct: made in house; host or cells: E. coli
Experimental: as §1, §2, §3

[1] = target: CAIX expressed on live A549 cells (Homo sapiens, UniProt Q16790); assay: Competition of unlabeled compound with 10 nM GZ19-32 on hypoxic A549 cells (competitive binding model)
CAIV = target: T6, CAIV (Homo sapiens, UniProt P22748); assay: Thermal shift assay (TSA), recombinant CAIV; type: binding; settings: 37 °C, pH 7.0, observed (not intrinsic)
T6 construct: made in house; host or cells: E. coli

[2] = target: T7, catalytic domain of recombinant human CAIX (Homo sapiens, UniProt Q16790); assay: Thermal shift assay (TSA), recombinant CAIX catalytic domain; type: binding
T7 construct: Isozymes CAIX, CAXII, and CAXIV were the catalytic domains of the proteins; made in house; host or cells: mammalian cells

CAXIV = target: T8, CAXIV (Homo sapiens, UniProt Q9ULX7); assay: Thermal shift assay (TSA), recombinant CAXIV; type: binding; settings: 37 °C, pH 7.0, observed (not intrinsic)
T8 construct: Isozymes CAIX, CAXII, and CAXIV were the catalytic domains of the proteins; made in house; host or cells: E. coli

CAXIII = target: T9, CAXIII (Homo sapiens, UniProt Q8N1Q1); assay: Thermal shift assay (TSA), recombinant CAXIII; type: binding; settings: 37 °C, pH 7.0, observed (not intrinsic)
T9 construct: made in house; host or cells: E. coli

CAXII = target: T10, CAXII (Homo sapiens, UniProt O43570); assay: Thermal shift assay (TSA), recombinant CAXII; type: binding; settings: 37 °C, pH 7.0, observed (not intrinsic)
T10 construct: Isozymes CAIX, CAXII, and CAXIV were the catalytic domains of the proteins; made in house; host or cells: E. coli
Experimental: as §1, §2, §3

[3] = target: T11, CAIX expressed on live HeLa cells (Homo sapiens, UniProt Q16790); assay: Competition of unlabeled compound with 10 nM GZ19-32 on hypoxic HeLa cells (competitive binding model); type: cell-based
T11 construct: recombinant CAIX and endogenous CAIX expressed on the cell surface; endogenous in cells; host or cells: HeLa (WT), grown under hypoxia (1% O2)

CAII = target: T12, CAII (Homo sapiens, UniProt P00918); assay: Thermal shift assay (TSA), recombinant CAII; type: binding; settings: 37 °C, pH 7.0, observed (not intrinsic)
T12 construct: made in house; host or cells: E. coli
Experimental: as §1, §2, §3

[4] = test system: CA activity in hypoxic HeLa CAIX-KO cells; assay: CA activity by gas-analysis mass spectrometry in live hypoxic HeLa CAIX-KO cells; type: cell-based, human
Experimental: (§4) Catalytic activity of CA in hypoxic human cervical adenocarcinoma (HeLa) cells was determined by monitoring the ^18O depletion of doubly labeled ^13C^18O2 through several hydration and dehydration steps with a quadrupole mass spectrometer (OmniStar GSD 320; Pfeiffer Vacuum, Asslar, Germany) as previously described[16],[51]. HeLa cells were cultured in Dulbecco’s Modified Eagle’s Medium–high glucose (D5671; Sigma Aldrich, Schnelldorf, Germany), supplemented with 10% fetal calf serum and 1% penicillin / streptomycin. The cell line was cultured under hypoxia (1% O2) for three days prior to measurements. Cells were detached from the plate with Accumax Cell Detachment Solution (ACM-1F; Capricorn Scientific, Ebsdorfergrund, Germany), washed and resuspended in HEPES-buffered saline (143 mM NaCl, 5 mM KCl, 2 mM CaCl2, 1 mM MgSO4, 1 mM Na2HPO4, 10 mM HEPES, pH 7.2). Approximately 3 × 10^6 cells, dissolved in 5 mL of HEPES-buffered saline (pH 7.2, RT), were used for every single measurement. […] For every measurement, the non-catalyzed reaction was determined for 12 min in the presence of inhibitor, before cell suspension was added to the measuring cuvette and the catalyzed reaction was determined for 12 min. […] IC50 values were determined by Hill1 fit using OriginPro 8.6 (OriginLab Corporation). CA enzymatic activity in units (U) was calculated as defined by Badger and Price[52]. […]

[5] = test system: CA activity in hypoxic HeLa WT cells; assay: CA activity by gas-analysis mass spectrometry in live hypoxic HeLa WT cells; type: cell-based, human; settings: Fig. 7A
Experimental: as §4

hypoxic HeLa cells = assay: XTT cell viability assay; type: cell-based, human; settings: up to 1 µM, 3 h
Experimental: Potential cytotoxic effects on HeLa cells were determined by XTT assay. The XTT was carried out as previously described by Scudiero et al.[53]. HeLa cells were cultured under hypoxia (1% O2) for three days prior to measurements. Cells were detached from the plate with Accumax Cell Detachment Solution (ACM-1F; Capricorn Scientific, Ebsdorfergrund, Germany), washed and resuspended in HEPES-buffered saline (143 mM NaCl, 5 mM KCl, 2 mM CaCl2, 1 mM MgSO4, 1 mM Na2HPO4, 10 mM HEPES, pH 7.2). For each measurement, 100,000 cells were incubated with 1 nM or 1 µM of GZ18-23 for 3 h prior to adding the XTT (No. 38450, SERVA Electrophoresis GmbH, Heidelberg, Germany) / electron coupling reagent (PMS; No. 32030, SERVA). XTT-specific absorbance was measured at 492 nm using a microplate reader (Tecan Infinite F200; Tecan Trading AG, Männedorf, Switzerland). Background absorption was measured at 690 nm. Cells, which were not incubated in GZ18-23, were used as control (100%).

CAVI = target: T13, CAVI (Homo sapiens, UniProt P23280); assay: Thermal shift assay (TSA), recombinant CAVI; type: binding; settings: 37 °C, pH 7.0, observed (not intrinsic)
T13 construct: made in house; host or cells: E. coli
Experimental: as §1, §2, §3

T10 sequence (O43570 30-289 limits assumed): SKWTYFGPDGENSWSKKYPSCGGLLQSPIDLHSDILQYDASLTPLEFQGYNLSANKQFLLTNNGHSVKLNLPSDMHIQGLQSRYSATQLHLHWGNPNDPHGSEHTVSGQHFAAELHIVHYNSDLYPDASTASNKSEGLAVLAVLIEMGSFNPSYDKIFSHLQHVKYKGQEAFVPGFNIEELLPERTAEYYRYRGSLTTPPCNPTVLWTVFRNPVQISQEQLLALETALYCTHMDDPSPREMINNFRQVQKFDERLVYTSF
T5 sequence (P35218 39-305): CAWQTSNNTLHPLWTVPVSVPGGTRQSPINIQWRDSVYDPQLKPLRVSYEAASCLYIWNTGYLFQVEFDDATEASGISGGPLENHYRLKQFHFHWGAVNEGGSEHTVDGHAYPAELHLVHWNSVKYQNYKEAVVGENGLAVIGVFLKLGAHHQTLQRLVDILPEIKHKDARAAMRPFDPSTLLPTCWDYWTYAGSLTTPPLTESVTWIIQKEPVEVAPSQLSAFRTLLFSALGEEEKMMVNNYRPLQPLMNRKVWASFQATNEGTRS
T2 sequence (P43166 whole entry): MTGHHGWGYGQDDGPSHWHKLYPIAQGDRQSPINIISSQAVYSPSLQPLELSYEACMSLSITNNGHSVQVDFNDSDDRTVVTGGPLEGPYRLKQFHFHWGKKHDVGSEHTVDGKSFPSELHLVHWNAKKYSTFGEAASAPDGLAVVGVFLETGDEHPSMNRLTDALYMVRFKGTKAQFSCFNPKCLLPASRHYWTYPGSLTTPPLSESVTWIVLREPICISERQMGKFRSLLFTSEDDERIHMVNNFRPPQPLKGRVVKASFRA
T1 sequence (Q9Y2D0 34-317): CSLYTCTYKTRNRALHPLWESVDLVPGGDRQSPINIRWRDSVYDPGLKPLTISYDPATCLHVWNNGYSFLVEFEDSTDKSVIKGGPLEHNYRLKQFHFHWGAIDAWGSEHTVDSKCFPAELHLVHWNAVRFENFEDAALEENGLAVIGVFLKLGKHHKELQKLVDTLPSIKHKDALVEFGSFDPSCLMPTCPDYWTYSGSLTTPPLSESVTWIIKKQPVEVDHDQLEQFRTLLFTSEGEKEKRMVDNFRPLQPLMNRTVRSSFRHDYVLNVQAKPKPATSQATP
T8 sequence (Q9ULX7 20-278 limits assumed): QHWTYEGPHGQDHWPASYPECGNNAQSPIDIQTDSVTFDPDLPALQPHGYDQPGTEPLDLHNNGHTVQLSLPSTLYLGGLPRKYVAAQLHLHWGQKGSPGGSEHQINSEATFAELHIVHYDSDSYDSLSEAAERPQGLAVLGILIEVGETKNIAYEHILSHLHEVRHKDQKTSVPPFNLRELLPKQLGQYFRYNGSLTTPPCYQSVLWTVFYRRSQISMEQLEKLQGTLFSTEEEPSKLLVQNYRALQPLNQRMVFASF
T3 sequence (P07451 whole entry): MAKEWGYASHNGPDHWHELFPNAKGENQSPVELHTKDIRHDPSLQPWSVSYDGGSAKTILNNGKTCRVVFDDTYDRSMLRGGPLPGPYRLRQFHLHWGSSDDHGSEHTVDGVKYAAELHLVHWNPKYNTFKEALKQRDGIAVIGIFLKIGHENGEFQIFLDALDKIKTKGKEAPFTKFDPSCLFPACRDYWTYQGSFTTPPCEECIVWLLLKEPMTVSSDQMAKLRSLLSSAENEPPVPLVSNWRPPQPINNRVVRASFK
T4 sequence (P00915 whole entry): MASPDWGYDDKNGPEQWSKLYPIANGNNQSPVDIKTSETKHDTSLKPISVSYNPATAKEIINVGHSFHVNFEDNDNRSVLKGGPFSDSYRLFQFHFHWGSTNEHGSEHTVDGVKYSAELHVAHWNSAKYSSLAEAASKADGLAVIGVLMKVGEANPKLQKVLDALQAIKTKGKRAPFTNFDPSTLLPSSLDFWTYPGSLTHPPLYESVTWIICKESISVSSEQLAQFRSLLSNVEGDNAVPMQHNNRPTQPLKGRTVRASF
T13 sequence (P23280 18-308): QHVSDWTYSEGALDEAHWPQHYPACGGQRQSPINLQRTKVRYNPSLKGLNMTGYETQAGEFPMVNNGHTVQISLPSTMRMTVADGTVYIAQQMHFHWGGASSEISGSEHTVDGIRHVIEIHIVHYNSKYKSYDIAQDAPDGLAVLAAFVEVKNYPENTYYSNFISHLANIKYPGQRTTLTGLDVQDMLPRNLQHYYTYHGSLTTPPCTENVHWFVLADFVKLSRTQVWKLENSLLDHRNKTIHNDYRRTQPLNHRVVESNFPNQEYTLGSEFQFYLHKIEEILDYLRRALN
T6 sequence (P22748 19-312): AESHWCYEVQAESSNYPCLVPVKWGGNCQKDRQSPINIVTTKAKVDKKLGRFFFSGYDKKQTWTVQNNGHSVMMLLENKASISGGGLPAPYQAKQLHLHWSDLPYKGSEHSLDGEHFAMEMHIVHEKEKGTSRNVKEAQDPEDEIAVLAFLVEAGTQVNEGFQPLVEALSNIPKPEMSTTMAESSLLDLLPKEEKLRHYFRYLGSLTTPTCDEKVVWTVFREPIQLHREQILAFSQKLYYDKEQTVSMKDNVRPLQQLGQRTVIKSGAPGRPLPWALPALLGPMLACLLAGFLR
T9 sequence (Q8N1Q1 whole entry): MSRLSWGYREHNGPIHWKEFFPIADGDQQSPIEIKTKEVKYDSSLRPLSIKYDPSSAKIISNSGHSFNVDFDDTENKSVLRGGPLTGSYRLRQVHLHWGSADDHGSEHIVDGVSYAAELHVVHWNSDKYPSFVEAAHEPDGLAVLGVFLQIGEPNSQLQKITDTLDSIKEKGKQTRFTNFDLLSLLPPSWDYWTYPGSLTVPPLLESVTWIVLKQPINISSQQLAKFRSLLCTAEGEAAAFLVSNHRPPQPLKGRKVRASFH

Which Kd (CAVB) does the source give for NS(=O)(=O)c1c(F)c(F)c(S(=O)(=O)CCC(=O)O)c(NC2CCCCCCC2)c1F [GZ18-23, 3-((2-(cyclooctylamino)-3,5,6-trifluoro-4-sulfamoylphenyl)sulfonyl)propanoic acid] here?
Its Kd is 160 nM.

And the Kd (CAVII)?
The Kd was 43 nM.

What about the Kd (CAIII) of the same compound?
The Kd was > 200000 nM.

What about the Kd (CAI) of the same compound?
Its Kd is 5000 nM.

What about the Kd (CAVA) of the same compound?
Its Kd is 12500 nM.

And the Kd [1]?
Its Kd is 0.22 nM.

And the Kd (CAIV)?
Its Kd is 120 nM.

What about the melting point of the same compound?
The melting point was 143 to 144 °C.

And the Kd ([2]; TSA, 37 °C, pH 7.0, observed (not intrinsic), read-out: Kd CAIX)?
The Kd was 0.033 nM.

And the “selectivity for CAIX over CAVII” value ([2]; ratio of Kd)?
Its value is 1000 ×.

What about the “selectivity for CAIX over CAXII” value ([2]; ratio of Kd) of the same compound?
Its value is 30 fold.

And the “selectivity for CAIX over CAXIII” value ([2]; ratio of Kd)?
Its value is 300 ×.

What about the “selectivity for CAIX over CAXIV” value ([2]; ratio of Kd) of the same compound?
The value was 100 fold.

And the “selectivity for CAIX over the remaining CA isozymes” value ([2]; ratio of Kd)?
Its value is “more than 3000 ×”.

What about the Kd ([2]; recombinant CAIX, read-out: Kd for CAIX) of the same compound?
Its Kd is 0.03 nM.

What about the Kd ([2]; recombinantly purified CAIX, read-out: Kd for purified CAIX by TSA) of the same compound?
Its Kd is 0.033 nM.

And the Kd (CAXIV)?
Its Kd is 3.3 nM.

And the Kd (CAXIII)?
The Kd was 10 nM.

And the Kd (CAXII)?
Its Kd is 1 nM and 1.4 nM.

What about the “dosing midpoint of competition curve” value ([3]; 10 nM GZ19-32, Fig. 12) of the same compound?
Its value is “around 10 nM”.

What about the Kd ([3]; HeLa cells grown under hypoxia, mixture with 10 nM GZ19-32, 20 min incubation, read-out: KdA, nM (competitive binding model)) of the same compound?
Its Kd is 0.3 nM.

And the “difference between affinity for CAIX on cells and purified CAIX” value ([3]; lower affinity on cells)?
Its value is 3 to 10 factor.

What about the Kd (CAII) of the same compound?
Its Kd is 160 nM.

And the “effect on CA activity” value [4]?
Its value is “no effect”.

And the IC50 ([5]; Homo sapiens, hypoxic HeLa cells, gas-analysis MS, read-out: k, inhibition of CA activity (Hill fit))?
The IC50 was 0.92 nM.

And the “overall CA activity remaining uninhibited” value ([5]; hypoxic HeLa WT cells)?
Its value is “approximately 20%”.

What about the “viability of hypoxic HeLa cells” value (hypoxic HeLa cells) of the same compound?
The value was “did not affect the viability”.

What about the Kd (CAVI) of the same compound?
Its Kd is 140 nM.
